Assays:
Format in all cases: cell-based
[1] = tested on: Mycosphaerella arachidis (syn. Cercospora arachidicola); experiment: Mycosphaerella arachidis (brown leaf spot of groundnut) growth inhibition in nutrient broth, microtiter plate
Method: Mycosphaerella arachidis (syn. Cercospora arachidicola), Brown Leaf Spot of Groundnut (Peanut):
(§1) Conidia of the fungus from cryogenic storage were directly mixed into nutrient broth (potato dextrose broth). After placing a (DMSO) solution of the test compounds into a microtiter plate (96-well format) the nutrient broth containing the fungal spores was added. The test plates were incubated at 24° C. and the inhibition of growth was determined photometrically after approximately 5-6 days at 620 nm.

[2] = tested on: Glomerella lagenarium (syn. Colletotrichum lagenarium); experiment: Glomerella lagenarium (anthracnose of cucurbits) growth inhibition in nutrient broth, microtiter plate
Method: Glomerella lagenarium (syn. Colletotrichum lagenarium), Anthracnose of Cucurbits:
as §1, with “72 hours” for “approximately 5-6 days”

Septoria tritici = Septoria tritici (leaf blotch) growth inhibition in nutrient broth, microtiter plate
Method: Septoria tritici (Leaf Blotch):
as §1, with “72 hours.” for “approximately 5-6 days at 620 nm.”

Botrvtis cinerea = experiment: Botrytis cinerea (gray mould) growth inhibition in nutrient broth, microtiter plate
Method: Botrvtis cinerea (Gray Mould):
as §1, with “72 hours.” for “approximately 5-6 days at 620 nm.”

Fusarium culmorum = Fusarium culmorum (root rot) growth inhibition in nutrient broth, microtiter plate; details: for AVERAGE DEAD IN % Epoxiconazole: Epoxiconazole alone, 48 hrs, 24° C.
Method: Fusarium culmorum (Root Rot):
as §1, with “48 hrs.” for “approximately 5-6 days at 620 nm.”

[3] = Azoxystrobin alone 0.015625 ppm AI
[4] = Azoxystrobin alone 0.03125 ppm AI
[5] = Azoxystrobin alone 0.0625 ppm AI
[6] = Epoxiconazole alone 0.0078125 ppm AI
[7] = Epoxiconazole alone 0.015625 ppm AI
[8] = Epoxiconazole alone 0.03125 ppm AI
[9] = Epoxiconazole alone 0.25 ppm AI
[10] = Pyraclostrobin alone 0.00390625 ppm AI
[11] = Pyraclostrobin alone 0.5 ppm AI

## CO/C=C(/C(=O)OC)c1ccccc1Oc1cc(Oc2ccccc2C#N)ncn1 [Azoxystrobin]
[1]; Azoxystrobin alone 0.0078125 ppm AI
  AVERAGE DEAD IN %: 0%
[1]; [3]
  AVERAGE DEAD IN %: 20%
[1]; [4]
  AVERAGE DEAD IN %: 70%
[1]; [5]
  AVERAGE DEAD IN %: 90%
[2]; [3]
  AVERAGE DEAD IN %: 20%
[2]; [4]
  AVERAGE DEAD IN %: 50%
[2]; [5]
  AVERAGE DEAD IN %: 70%
[2]; Azoxystrobin alone 0.125 ppm AI
  AVERAGE DEAD IN %: 90%
Septoria tritici; [4]
  AVERAGE DEAD IN %: 20%
Septoria tritici; [5]
  AVERAGE DEAD IN %: 70%

## Fc1ccc([C@]2(Cn3cncn3)O[C@H]2c2ccccc2Cl)cc1 (racemic) [Epoxiconazole]
[1]; [6]
  AVERAGE DEAD IN %: 0%
[1]; [7]
  AVERAGE DEAD IN %: 0%
[1]; [8]
  AVERAGE DEAD IN %: 20%
[2]; [9]
  AVERAGE DEAD IN %: 20%
[2]; Epoxiconazole alone 0.5 ppm AI
  AVERAGE DEAD IN %: 50%
[2]; Epoxiconazole alone 1 ppm AI
  AVERAGE DEAD IN %: 70%
[2]; Epoxiconazole alone 2 ppm AI
  AVERAGE DEAD IN %: 90%
Septoria tritici; [6]
  AVERAGE DEAD IN %: 0%
Septoria tritici; [7]
  AVERAGE DEAD IN %: 0%
Septoria tritici; [8]
  AVERAGE DEAD IN %: 20%
Septoria tritici; Epoxiconazole alone 0.0625 ppm AI
  AVERAGE DEAD IN %: 50%
Septoria tritici; Epoxiconazole alone 0.125 ppm AI
  AVERAGE DEAD IN %: 70%
Septoria tritici; [9]
  AVERAGE DEAD IN %: 90%
Septoria tritici; Epoxiconazole alone 0.5 ppm AI
  AVERAGE DEAD IN %: 90%
Septoria tritici; Epoxiconazole alone 1 ppm AI
  AVERAGE DEAD IN %: 90%
Septoria tritici; Epoxiconazole alone 2 ppm AI
  AVERAGE DEAD IN %: 90%
Botrvtis cinerea; [9]
  AVERAGE DEAD IN %: 20%
Botrvtis cinerea; Epoxiconazole alone 0.5 ppm AI
  AVERAGE DEAD IN %: 90%
Botrvtis cinerea; Epoxiconazole alone 1 ppm AI
  AVERAGE DEAD IN %: 100%
Botrvtis cinerea; Epoxiconazole alone 2 ppm AI
  AVERAGE DEAD IN %: 100%
Fusarium culmorum; 0.125 PPM AI
  AVERAGE DEAD IN % Epoxiconazole: 20%
Fusarium culmorum; 0.25 PPM AI
  AVERAGE DEAD IN % Epoxiconazole: 20%
Fusarium culmorum; 0.5 PPM AI
  AVERAGE DEAD IN % Epoxiconazole: 20%
Fusarium culmorum; 1 PPM AI
  AVERAGE DEAD IN % Epoxiconazole: 20%
Fusarium culmorum; 2 PPM AI
  AVERAGE DEAD IN % Epoxiconazole: 20%

## COC(=O)N(OC)c1ccccc1COc1ccn(-c2ccc(Cl)cc2)n1 [Pyraclostrobin]
[1]; [10]
  AVERAGE DEAD IN %: 90%
[2]; [10]
  AVERAGE DEAD IN %: 70%
[2]; Pyraclostrobin alone 0.0078125 ppm AI
  AVERAGE DEAD IN %: 90%
Septoria tritici; [10]
  AVERAGE DEAD IN %: 90%
Botrvtis cinerea; Pyraclostrobin alone 0.125 ppm AI
  AVERAGE DEAD IN %: 20%
Botrvtis cinerea; Pyraclostrobin alone 0.25 ppm AI
  AVERAGE DEAD IN %: 20%
Botrvtis cinerea; [11]
  AVERAGE DEAD IN %: 20%
Botrvtis cinerea; Pyraclostrobin alone 1 ppm AI
  AVERAGE DEAD IN %: 50%
Botrvtis cinerea; Pyraclostrobin alone 2 ppm AI
  AVERAGE DEAD IN %: 70%
Fusarium culmorum; [11]
  AVERAGE DEAD IN %: 20%
Fusarium culmorum; Pyraclostrobin alone 1 ppm AI
  AVERAGE DEAD IN %: 20%
Fusarium culmorum; Pyraclostrobin alone 2 ppm AI
  AVERAGE DEAD IN %: 20%

Reference: patent US20130203591A1, “PESTICIDAL MIXTURES INCLUDING ISOXAZOLINE DERIVATIVES” (SYNGENTA CROP PROTECTION LLC, priority 2010, published 2013)
